Test results reported in US7393824B1, “Methods of peptide preparation” (Lytix Biopharma, priority 2000, dated 2008).
Residues, ends and D or L forms follow the SMILES beside them.

Columns and labels:
[1] = system: Escherichia coli ATCC 25922; format: cell-based; conditions: ATCC 25922
Experimental: (§1) The bacterial strains used were: Escherichia coli ATCC 25922 and Staphylococcus aureus ATCC 25923. All strains were stored at −70° C. The bacteria were grown in 2% Bacto Peptone water (Difco 1807-17-4). All tests were performed with bacteria in mid-logarithmic growth phase. Determination of the minimum inhibitory concentration (MIC) of the peptides for bacterial strains were performed in 1% Bacto Peptone water. A standard microdilution technique with an inoculum of 2×10^6 CFU/ml was used. All assays were performed in triplets. Since the peptides are positively charged and therefore could adhere to the plastic wells, we controlled the actual concentration of the peptides in the solution by HPLC. There was no difference between the concentration of the peptides before or after adding the solution to the plastic wells.

[2] = system: Staphylococcus aureus ATCC 25923; format: cell-based; conditions: ATCC 25923
Experimental: as §1

human red blood cells = experiment: Hemolytic assay; format: cell-based; conditions: red cells of human
Experimental: The hemolytic activities of the peptides were determined using fresh human red blood cells. 8 ml blood was taken from a healthy person. 4 ml blood was transferred to a polycarbonate tube containing heparin to a final concentration of 10 U/ml, and the remaining 4 ml blood was transferred to a glass tube containing EDTA with final concentration of 15% EDTA. The erythrocytes were isolated from heparin-treated blood by centrifugation in 1500 rpm for 10 min and washed three times with phosphate-buffered saline (PBS) to remove plasma and buffy coat. The cell pellet was resuspended in PBS to make the final volume of 4 ml. The peptide was diluted to a concentration of 2 mg/ml and 0.1 mg/ml. The peptide was further diluted to the concentrations as stated in Table 1. For each tube PBS was added first, then RBCs and peptide solutions. The hematocrit in the blood treated with EDTA was determined after 30 min with Sysmex K-1000, and the resuspended RBCs were diluted into 10% hematocrit. RBCs in PBS (1%) with and without peptides (Table 18) were incubated in a shaker at […] for 1 hour and then centrifuged at 4000 rpm for 5 min. The supernatant were carefully transferred to new polycarbonate tubes and the absorbance of the supernatant was measured at 540 nm. Baseline hemolysis was hemoglobin released in the presence of PBS, and 100% hemolysis was hemoglobin released in the presence of 0.1% Triton X-100.

[3] = system: MRC-5 cells (normal fibroblasts); experiment: Fibroblast assay (MTT); format: cell-based
Experimental: The cells were washed with PBS and then trypsinated using 2 ml trypsin (for a 80 cm culture flask). After the cells had detached from the wall, usually after ca 3 min. of incubation, 5 ml medium with FBS were added. The cells were resuspended and counted. The cells were then transferred to a centrifugation tube and spinned at 1500 rpm for 10 min. The supernatant was removed and the cells resuspended to a concentration of 1×10^5 cells/ml. 100 ul cells suspension was transferred to each well in a 96-well microtiter plate and incubated for 25 hours to allow the cells to attach. Following the incubation, the medium containing serum was removed by turning the plate upside down against a piece of tissue. 100 ul medium without serum and L-glutamine (assay medium) was added to each well, and then removed as before. This was done to remove any trace of serum. […] The rest of the assay was done as previously described for methA, except that after the 2 hour incubation following MTT addition, 80 ul medium instead of 130 ul were removed.

[4] = system: Meth A murine sarcoma cell line; format: cell-based; conditions: 4 h
Experimental: Peptide solutions (0.1 ml) were added and the plates incubated at 37° C. for 30 minutes, 4 hours or 24 hours. The cytotoxicity was measured using the MTT method (Mosmann et al., J. Immunol. (1986) 136, 2348-2357).

human erythrocytes = conditions: cited from earlier work
fibroblasts = conditions: cited from earlier work
E. coli = conditions: from the literature; cited from earlier work
S. aureus = conditions: from the literature; cited from earlier work

Molecule	Mic E-coli [1] [µM]	Mic S. Aureus [2] [µM]	EC50 (human red blood cells) [µM]	IC50 [3] [µM]	IC50 [4] [µM]	activity against human erythrocytes (human erythrocytes)	activity against fibroblasts (fibroblasts)	MIC against E. coli (E. coli) [µM]	MIC against S. aureus (S. aureus) [µM]
CC[C@H](C)[C@H](NC(=O)[C@H](C)NC(=O)[C@@H](NC(=O)[C@H](CCCNC(=N)N)NC(=O)[C@H](Cc1ccccc1)NC(=O)[C@H](C)NC(=O)[C@H](CCCCN)NC(=O)[C@H](CCCNC(=N)N)NC(=O)[C@H](Cc1c[nH]c2ccccc12)NC(=O)[C@H](C)NC(=O)[C@@H]1CCCN1)[C@@H](C)CC)C(=O)N[C@@H](CCCNC(=N)N)C(=O)N[C@@H](CCSC)C(=O)N[C@@H](CC(C)C)C(=O)N[C@@H](CCCCN)C(=O)N[C@@H](CCCCN)C(=O)N[C@@H](C)C(=O)N[C@@H](C)C(=O)O [W9,11→I9,11] (H-PAWRKAFRIAIRMLKKAA-OH; N-terminus and C-terminus assumed)	35	19	284	26	22	–	–	–	–
(KAAKKAA)3	–	–	–	–	–	no measurable activity	no measurable activity	8	8
